How the values were obtained:
COLO 205 = assay: NCI-60 SRB growth inhibition: COLO 205; assay type: cell-based, human; conditions: COLO 205, Colon cancer, 48 hours treatment; for CC50: Homo sapiens, read-out: LC50 (the source's name)
OVCAR-8 = assay: NCI-60 SRB growth inhibition: OVCAR-8; assay type: cell-based, human; conditions: OVCAR-8, Ovarian cancer, 48 hours treatment; for CC50: Homo sapiens, read-out: LC50 (the source's name)
ABL kinase = molecular target: T1, ABL kinase (Homo sapiens, UniProt P00519); assay: Functional kinase inhibition assay: ABL; assay type: biochemical; conditions: 1 μM compound
T1 construct: purchased Millipore Corp. (Dundee, UK; assay service)
Description: [formula] The assay was performed in duplicates.
The results of kinase function inhibition assay are shown in Table 6, including the F-POC of 1 μM of compounds 4, 15, and 16 against the most sensitive kinases tested within this experiment. […] Kinases within the same subfamily are highlighted.

IGROVI = assay: NCI-60 SRB growth inhibition: IGROVI; assay type: cell-based, human; conditions: Ovarian cancer, 48 hours treatment; for CC50: Homo sapiens, read-out: LC50 (the source's name)
MALME-3M = assay: NCI-60 SRB growth inhibition: MALME-3M; assay type: cell-based, human; conditions: Melanoma, 48 hours treatment
SK-MEL-2 = assay: NCI-60 SRB growth inhibition: SK-MEL-2; assay type: cell-based, human; conditions: SK-MEL-2, Melanoma; 48 hours treatment
NCI/ADR-RES = assay: NCI-60 SRB growth inhibition: NCI/ADR-RES; assay type: cell-based, human; conditions: Ovarian cancer, 48 hours treatment; for CC50: Homo sapiens, read-out: LC50 (the source's name)
A549/ATCC = assay: NCI-60 SRB growth inhibition: A549/ATCC; assay type: cell-based, human; conditions: Non-small cell lung cancer, 48 hours treatment; for CC50: Homo sapiens, read-out: LC50 (the source's name)
SN12C = assay: NCI-60 SRB growth inhibition: SN12C; assay type: cell-based, human; conditions: Renal cancer, 48 hours treatment; for CC50: Homo sapiens, read-out: LC50 (the source's name)
SNB-75 = assay: NCI-60 SRB growth inhibition: SNB-75; assay type: cell-based, human; conditions: SNB-75, CNS cancer, 48 hours treatment; for CC50: Homo sapiens, read-out: LC50 (the source's name)
HL-6O(TB) = assay: NCI-60 SRB growth inhibition: HL-6O(TB); assay type: cell-based, human; conditions: Leukemia, 48 hours treatment
OVCAR-3 = assay: NCI-60 SRB growth inhibition: OVCAR-3; assay type: cell-based, human; conditions: OVCAR-3, Ovarian cancer; 48 hours treatment
RPMI-8226 = assay: NCI-60 SRB growth inhibition: RPMI-8226; assay type: cell-based, human; conditions: RPMI-8226, Leukemia, 48 hours treatment; for CC50: Homo sapiens, read-out: LC50 (the source's name)
HCT-15 = assay: NCI-60 SRB growth inhibition: HCT-15; assay type: cell-based, human; conditions: HCT-15, Colon cancer; 48 hours treatment
SK-OV-3 = assay: NCI-60 SRB growth inhibition: SK-OV-3; assay type: cell-based, human; conditions: SK-OV-3, Ovarian cancer; 48 hours treatment
CSNK1D = molecular target: T2, CSNK1D (Homo sapiens, UniProt P48730); assay: Kinase binding screening: CSNK1D; conditions: 10 μM compound, read-out: B-POC (binding percentage of control)
T2 construct: purchased Ambit Bioscience (assay service)
Description: Biotinylated kinase ligand was immobilized onto streptavidin coated magnetic beads and washed with blocking buffer. The liganded beads were then incubated with DNA-tagged kinase in the presence of test compound for 1 h at room temperature. Binding reactions were carried out in 20% Seablock, 0.17×PBS, 0.005% Tween 20, 6 mM DTT, in a final volume of 0.04 mL. Beads were then washed with wash buffer (PBS, 0.05% Tween 20), and then incubated with elution buffer (PBS, 0.05% Tween […] non-biotinylated kinase ligand) and eluted. The kinase concentration in the eluate was then measured by quantitative PCR. […] The results of this single dose screening are reported in the form of binding percentage of control (B-POC) which is defined as follows:
[formula] The negative control signal is obtained by the vehicle and corresponds to B-POC=100%. The positive signal control is detected by a binding positive compound and is B-POC 0%. The B-POC results are the average of duplicate measurements. Only interactions with […] were considered significant and thus used for calculating the selectivity scores (Table 1) of the test compounds as follows:
[formula] […] The Kd is then calculated according to the following equation:
[formula] hill slope=−1. A non-linear least square fit with the Levenberg-Marquardt algorithm was implemented to fit the curves (FIG. 3). Kinase binding assays were performed by Ambit Bioscience (San Diego, Calif., USA).
The results of kinase binding assay are shown in Table 1, which includes the B-POC values of 10 μM of compounds 4, 15, and 16 against the most sensitive kinases tested within this binding experiment. […] Kinases within the same subfamily are highlighted. […] Both the B-POC and Kd values are the average of duplicate measurements.
J. et al. Bioorganic and Medicinal Chemistry Letters 2009, 19, 1206-1209; Chao, Q. et al. Journal of Medicinal Chemistry 2009, 52, 7808-7816.). A single dose of 10 μM was chosen to allow for detecting kinases able to bind to the test compounds. In this binding assay, a set of 243 kinases were included. […]

OVCAR-5 = assay: NCI-60 SRB growth inhibition: OVCAR-5; assay type: cell-based, human; conditions: OVCAR-5, Ovarian cancer, 48 hours treatment; for CC50: Homo sapiens, read-out: LC50 (the source's name)
UACC-257 = assay: NCI-60 SRB growth inhibition: UACC-257; assay type: cell-based, human; conditions: for CC50: Homo sapiens, UACC-257, 48 h, read-out: LC50 (the source's name); for TGI: UACC-257, Melanoma, 48 hours treatment

T2 sequence (P48730 whole entry): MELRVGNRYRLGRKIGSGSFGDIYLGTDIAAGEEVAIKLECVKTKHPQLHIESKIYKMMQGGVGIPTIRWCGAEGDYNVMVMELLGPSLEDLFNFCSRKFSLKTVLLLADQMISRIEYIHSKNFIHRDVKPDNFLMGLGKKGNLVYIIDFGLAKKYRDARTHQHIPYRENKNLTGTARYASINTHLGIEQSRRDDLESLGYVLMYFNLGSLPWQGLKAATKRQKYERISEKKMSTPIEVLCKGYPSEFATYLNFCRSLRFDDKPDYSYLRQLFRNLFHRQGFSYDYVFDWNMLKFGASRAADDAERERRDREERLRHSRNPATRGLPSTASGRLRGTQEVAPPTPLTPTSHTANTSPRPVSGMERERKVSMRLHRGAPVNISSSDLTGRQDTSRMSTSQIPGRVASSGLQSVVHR
T1 sequence (P00519 whole entry): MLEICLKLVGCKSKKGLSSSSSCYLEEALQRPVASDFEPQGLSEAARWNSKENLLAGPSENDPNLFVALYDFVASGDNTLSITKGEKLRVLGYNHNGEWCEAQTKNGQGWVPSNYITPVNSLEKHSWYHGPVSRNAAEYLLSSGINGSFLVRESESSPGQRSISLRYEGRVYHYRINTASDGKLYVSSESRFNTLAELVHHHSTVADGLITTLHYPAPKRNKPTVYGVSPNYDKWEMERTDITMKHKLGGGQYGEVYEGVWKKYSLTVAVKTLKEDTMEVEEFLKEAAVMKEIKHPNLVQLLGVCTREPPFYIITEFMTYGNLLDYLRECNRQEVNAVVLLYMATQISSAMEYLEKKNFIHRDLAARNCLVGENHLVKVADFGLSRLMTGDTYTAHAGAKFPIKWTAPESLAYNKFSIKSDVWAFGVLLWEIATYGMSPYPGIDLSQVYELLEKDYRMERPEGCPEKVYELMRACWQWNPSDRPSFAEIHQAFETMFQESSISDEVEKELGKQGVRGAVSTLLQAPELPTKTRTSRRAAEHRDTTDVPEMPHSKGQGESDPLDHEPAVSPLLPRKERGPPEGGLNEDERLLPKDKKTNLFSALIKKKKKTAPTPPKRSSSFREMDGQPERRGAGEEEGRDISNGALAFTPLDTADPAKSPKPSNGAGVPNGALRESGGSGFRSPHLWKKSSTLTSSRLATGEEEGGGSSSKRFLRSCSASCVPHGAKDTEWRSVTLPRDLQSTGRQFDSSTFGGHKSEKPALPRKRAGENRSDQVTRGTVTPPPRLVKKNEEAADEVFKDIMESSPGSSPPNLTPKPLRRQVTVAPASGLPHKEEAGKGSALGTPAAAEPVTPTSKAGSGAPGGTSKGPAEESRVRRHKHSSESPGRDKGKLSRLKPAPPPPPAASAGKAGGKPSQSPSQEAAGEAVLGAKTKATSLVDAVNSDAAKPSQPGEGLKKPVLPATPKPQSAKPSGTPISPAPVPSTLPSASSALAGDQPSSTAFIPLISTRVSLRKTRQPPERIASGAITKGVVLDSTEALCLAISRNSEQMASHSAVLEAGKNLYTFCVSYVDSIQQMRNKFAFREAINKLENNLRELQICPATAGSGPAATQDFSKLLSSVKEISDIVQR

Q: With `c1ccc(Cc2cnc(N3CCN(c4ncnc5ccccc45)CC3)nc2)cc1` [Compound 4, 4-(4-(5-benzylpyrimidin-2-yl)piperazin-1-yl)quinazoline] as the compound, how does the TGI (COLO 205) read?
A: >100 µM

Q: What about the CC50 (COLO 205) of the same compound?
A: > 100 µM

Q: And the CC50 (OVCAR-8)?
A: 71.3 µM

Q: And the TGI (OVCAR-8)?
A: 25.60 µM

Q: And the “inhibitory action over ABL kinase function” value (ABL kinase)?
A: without affecting ABL subfamily members

Q: What about the CC50 (IGROVI) of the same compound?
A: > 100 µM

Q: And the TGI (IGROVI)?
A: 63.30 µM

Q: What about the TGI (MALME-3M) of the same compound?
A: 33.60 µM

Q: What about the TGI (SK-MEL-2) of the same compound?
A: 35.80 µM

Q: And the CC50 (NCI/ADR-RES)?
A: 66.4 µM

Q: What about the TGI (NCI/ADR-RES) of the same compound?
A: 17.60 µM

Q: And the CC50 (A549/ATCC)?
A: > 100 µM

Q: And the TGI (A549/ATCC)?
A: 35.70 µM

Q: What about the CC50 (SN12C) of the same compound?
A: 54.8 µM

Q: And the TGI (SN12C)?
A: 24.40 µM

Q: And the CC50 (SNB-75)?
A: > 100 µM

Q: And the TGI (SNB-75)?
A: 78.20 µM

Q: And the TGI (HL-6O(TB))?
A: 41.80 µM

Q: And the TGI (OVCAR-3)?
A: 23.20 µM

Q: What about the CC50 (RPMI-8226) of the same compound?
A: 97.3 µM

Q: What about the TGI (RPMI-8226) of the same compound?
A: 21.80 µM

Q: And the TGI (HCT-15)?
A: 63.20 µM

Q: What about the TGI (SK-OV-3) of the same compound?
A: >100 µM

Q: What about the remaining activity at 10 µM (CSNK1D) of the same compound?
A: 26%

Q: And the CC50 (OVCAR-5)?
A: > 100 µM

Q: What about the TGI (OVCAR-5) of the same compound?
A: 69.80 µM

Q: What about the CC50 (UACC-257) of the same compound?
A: 41.4 µM

Q: What about the TGI (UACC-257) of the same compound?
A: 16.80 µM

Q: With `CCc1cnc(N2CCN(C(=O)c3ccc(CNc4ncnc5ccccc45)cc3)CC2)nc1` [Compound 15, (4-(5-ethylpyrimidin-2-yl)piperazin-1-yl)(4-((quinazolin-4-ylamino)methyl)phenyl)methanone] as the compound, how does the TGI (COLO 205) read?
A: 38.20 µM

Q: And the CC50 (COLO 205)?
A: > 100 µM

Q: And the CC50 (OVCAR-8)?
A: > 100 µM

Q: What about the TGI (OVCAR-8) of the same compound?
A: >100 µM

Q: What about the “inhibitory action over ABL kinase function” value (ABL kinase) of the same compound?
A: weak inhibitory action

Q: What about the CC50 (IGROVI) of the same compound?
A: > 100 µM

Q: What about the TGI (IGROVI) of the same compound?
A: 49.80 µM

Q: What about the TGI (MALME-3M) of the same compound?
A: 42.20 µM

Q: What about the TGI (SK-MEL-2) of the same compound?
A: >100 µM

Q: And the CC50 (NCI/ADR-RES)?
A: > 100 µM

Q: And the TGI (NCI/ADR-RES)?
A: 21.50 µM

Q: What about the CC50 (A549/ATCC) of the same compound?
A: > 100 µM

Q: What about the TGI (A549/ATCC) of the same compound?
A: >100 µM

Q: And the CC50 (SN12C)?
A: > 100 µM

Q: What about the TGI (SN12C) of the same compound?
A: 59.00 µM

Q: What about the CC50 (SNB-75) of the same compound?
A: > 100 µM

Q: What about the TGI (SNB-75) of the same compound?
A: 58.20 µM

Q: What about the TGI (HL-6O(TB)) of the same compound?
A: 38.60 µM

Q: And the TGI (OVCAR-3)?
A: >100 µM

Q: What about the CC50 (RPMI-8226) of the same compound?
A: > 100 µM

Q: What about the TGI (RPMI-8226) of the same compound?
A: 14.30 µM

Q: What about the TGI (HCT-15) of the same compound?
A: >100 µM

Q: And the TGI (SK-OV-3)?
A: >100 µM

Q: And the remaining activity at 10 µM (CSNK1D)?
A: 23%

Q: What about the CC50 (OVCAR-5) of the same compound?
A: > 100 µM

Q: What about the TGI (OVCAR-5) of the same compound?
A: >100 µM

Q: What about the CC50 (UACC-257) of the same compound?
A: > 100 µM

Q: And the TGI (UACC-257)?
A: 26.80 µM

Q: How did the TGI (COLO 205) turn out when `O=C(c1cccc(Nc2ncnc3ccccc23)c1)N1CCN(c2ncc(Cc3ccccc3)cn2)CC1` [Compound 16, (4-(5-benzylpyrimidin-2-yl)piperazin-1-yl)(3-(quinazolin-4-ylamino)phenyl)methanone] was run?
A: 2.75 µM

Q: And the CC50 (COLO 205)?
A: 5.5 µM

Q: What about the CC50 (OVCAR-8) of the same compound?
A: > 100 µM

Q: And the TGI (OVCAR-8)?
A: 3.31 µM

Q: What about the “inhibitory action over ABL kinase function” value (ABL kinase) of the same compound?
A: weak inhibitory action

Q: What about the CC50 (IGROVI) of the same compound?
A: 5.01 µM

Q: And the TGI (IGROVI)?
A: 1.82 µM

Q: What about the TGI (MALME-3M) of the same compound?
A: 2.57 µM

Q: And the TGI (SK-MEL-2)?
A: 2.69 µM

Q: What about the CC50 (NCI/ADR-RES) of the same compound?
A: > 100 µM

Q: What about the TGI (NCI/ADR-RES) of the same compound?
A: 8.51 µM

Q: What about the CC50 (A549/ATCC) of the same compound?
A: 8.13 µM

Q: And the TGI (A549/ATCC)?
A: 3.09 µM

Q: And the CC50 (SN12C)?
A: > 100 µM

Q: And the TGI (SN12C)?
A: 7.08 µM

Q: And the CC50 (SNB-75)?
A: > 100 µM

Q: What about the TGI (SNB-75) of the same compound?
A: 5.89 µM

Q: And the TGI (HL-6O(TB))?
A: 1.54 µM

Q: What about the TGI (OVCAR-3) of the same compound?
A: 8.13 µM

Q: And the CC50 (RPMI-8226)?
A: 3.89 µM

Q: And the TGI (RPMI-8226)?
A: 0.60 µM

Q: And the TGI (HCT-15)?
A: 3.55 µM

Q: What about the TGI (SK-OV-3) of the same compound?
A: 4.47 µM

Q: What about the remaining activity at 10 µM (CSNK1D) of the same compound?
A: 22%

Q: What about the CC50 (OVCAR-5) of the same compound?
A: > 100 µM

Q: And the TGI (OVCAR-5)?
A: 5.75 µM

Q: What about the CC50 (UACC-257) of the same compound?
A: 5.37 µM

Q: What about the TGI (UACC-257) of the same compound?
A: 2.63 µM

Source: US8609672B2, “Piperazinylpyrimidine analogues as protein kinase inhibitors” (University of the Pacific, priority 2010, dated 2013)
